Assay results reported in ChEMBL document CHEMBL2203238, “Hit to Lead optimization of a novel class of squarate-containing polo-like kinases inhibitors” (Bioorg Med Chem Lett, 2012).

Key:
[1] = target: Mitogen-activated protein kinase 9 (Homo sapiens, UniProt P45984); test: Inhibition of recombinant JNK2A2 after 1 hr by scintillation counter analysis in presence of gamma-[33P]ATP
[2] = target: Insulin-like growth factor 1 receptor (Homo sapiens, UniProt P08069); test: Inhibition of recombinant IGF1R after 1 hr by scintillation counter analysis in presence of gamma-[33P]ATP
[3] = target: Rho-associated protein kinase 1 (Homo sapiens, UniProt Q13464); test: Inhibition of recombinant ROCK1 after 1 hr by scintillation counter analysis in presence of gamma-[33P]ATP
[4] = Half life in mouse, iv; type: ADME, organism-based; settings: in vivo
[5] = Cmax in mouse at 50 mg/kg, po measured at 1 hr; type: ADME, organism-based; parameters: dose 50 mg/kg, route oral; settings: in vivo
[6] = target: Rho-associated protein kinase 2 (Homo sapiens, UniProt O75116); test: Inhibition of recombinant ROCK2 after 1 hr by scintillation counter analysis in presence of gamma-[33P]ATP
Sequence of Rho-associated protein kinase 2 (O75116 whole entry): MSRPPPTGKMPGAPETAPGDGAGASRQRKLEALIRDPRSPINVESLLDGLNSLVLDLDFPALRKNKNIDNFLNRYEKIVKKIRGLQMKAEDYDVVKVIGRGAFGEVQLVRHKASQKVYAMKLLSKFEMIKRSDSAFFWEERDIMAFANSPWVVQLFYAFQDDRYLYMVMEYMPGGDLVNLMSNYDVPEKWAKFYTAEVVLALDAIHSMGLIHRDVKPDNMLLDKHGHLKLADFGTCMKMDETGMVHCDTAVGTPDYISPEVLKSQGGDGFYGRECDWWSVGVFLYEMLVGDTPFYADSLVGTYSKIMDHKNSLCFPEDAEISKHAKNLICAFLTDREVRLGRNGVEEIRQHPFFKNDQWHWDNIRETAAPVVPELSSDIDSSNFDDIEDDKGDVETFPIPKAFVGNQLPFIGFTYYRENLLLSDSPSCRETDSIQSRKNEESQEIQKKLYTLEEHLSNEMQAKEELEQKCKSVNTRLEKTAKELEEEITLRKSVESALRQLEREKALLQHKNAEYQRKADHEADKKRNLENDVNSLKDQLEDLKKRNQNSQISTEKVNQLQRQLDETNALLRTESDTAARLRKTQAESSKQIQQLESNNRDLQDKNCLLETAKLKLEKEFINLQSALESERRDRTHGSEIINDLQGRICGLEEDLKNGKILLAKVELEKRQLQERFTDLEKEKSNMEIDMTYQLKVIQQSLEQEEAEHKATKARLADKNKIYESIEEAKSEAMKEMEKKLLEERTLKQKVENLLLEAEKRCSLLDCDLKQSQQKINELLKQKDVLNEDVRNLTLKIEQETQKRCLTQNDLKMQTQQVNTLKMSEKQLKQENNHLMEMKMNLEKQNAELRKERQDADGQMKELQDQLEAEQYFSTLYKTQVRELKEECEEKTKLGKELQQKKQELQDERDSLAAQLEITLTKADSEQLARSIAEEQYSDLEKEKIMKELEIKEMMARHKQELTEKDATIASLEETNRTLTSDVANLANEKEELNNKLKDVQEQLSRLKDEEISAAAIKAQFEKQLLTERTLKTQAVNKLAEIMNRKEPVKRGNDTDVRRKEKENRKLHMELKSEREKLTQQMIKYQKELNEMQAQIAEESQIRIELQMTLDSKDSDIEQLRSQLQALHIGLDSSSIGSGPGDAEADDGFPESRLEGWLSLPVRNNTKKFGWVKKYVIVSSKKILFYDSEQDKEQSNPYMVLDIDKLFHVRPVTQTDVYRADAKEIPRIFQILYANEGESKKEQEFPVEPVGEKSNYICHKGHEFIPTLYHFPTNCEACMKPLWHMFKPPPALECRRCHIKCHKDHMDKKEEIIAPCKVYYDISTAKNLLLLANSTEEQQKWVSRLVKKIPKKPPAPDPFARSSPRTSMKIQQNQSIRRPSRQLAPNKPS

[7] = target: Mitogen-activated protein kinase 8 (Homo sapiens, UniProt P45983); test: Inhibition of recombinant JNK1A1 after 1 hr by scintillation counter analysis in presence of gamma-[33P]ATP
[8] = target: Casein kinase I isoform delta (Homo sapiens, UniProt P48730); test: Inhibition of recombinant CK1delta after 1 hr by scintillation counter analysis in presence of gamma-[33P]ATP
[9] = target: BDNF/NT-3 growth factors receptor (Homo sapiens, UniProt Q16620); test: Inhibition of recombinant TRKB after 1 hr by scintillation counter analysis in presence of gamma-[33P]ATP
[10] = target: Vascular endothelial growth factor receptor 1 (Homo sapiens, UniProt P17948); test: Inhibition of recombinant FLT1 after 1 hr by scintillation counter analysis in presence of gamma-[33P]ATP
[11] = target: Serine/threonine-protein kinase 3 (Homo sapiens, UniProt Q13188); test: Inhibition of recombinant MST2 after 1 hr by scintillation counter analysis in presence of gamma-[33P]ATP
Sequence of Serine/threonine-protein kinase 3 (Q13188 whole entry): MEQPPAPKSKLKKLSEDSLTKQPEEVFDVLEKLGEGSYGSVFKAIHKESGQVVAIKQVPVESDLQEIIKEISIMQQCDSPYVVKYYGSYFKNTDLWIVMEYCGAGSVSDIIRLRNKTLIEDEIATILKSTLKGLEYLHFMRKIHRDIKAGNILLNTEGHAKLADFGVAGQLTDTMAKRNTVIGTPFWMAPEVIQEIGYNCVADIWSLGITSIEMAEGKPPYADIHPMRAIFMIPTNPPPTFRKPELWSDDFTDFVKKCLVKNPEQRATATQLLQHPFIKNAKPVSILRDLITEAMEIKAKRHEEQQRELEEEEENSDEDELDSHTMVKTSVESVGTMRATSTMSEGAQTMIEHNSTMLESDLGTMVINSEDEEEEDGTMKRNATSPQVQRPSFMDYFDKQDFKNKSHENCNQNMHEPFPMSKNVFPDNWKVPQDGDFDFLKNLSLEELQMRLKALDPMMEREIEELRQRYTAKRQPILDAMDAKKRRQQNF

[12] = target: Glycogen synthase kinase-3 beta (Homo sapiens, UniProt P49841); test: Inhibition of recombinant GSK3B after 1 hr by scintillation counter analysis in presence of gamma-[33P]ATP
[13] = target: Tyrosine-protein kinase ITK/TSK (Homo sapiens, UniProt Q08881); test: Inhibition of recombinant ITK after 1 hr by scintillation counter analysis in presence of gamma-[33P]ATP
[14] = target: Vascular endothelial growth factor receptor 2 (Homo sapiens, UniProt P35968); test: Inhibition of recombinant KDR after 1 hr by scintillation counter analysis in presence of gamma-[33P]ATP
[15] = target: Ephrin type-A receptor 2 (Homo sapiens, UniProt P29317); test: Inhibition of recombinant EPHA2 after 1 hr by scintillation counter analysis in presence of gamma-[33P]ATP
[16] = target: Dual specificity tyrosine-phosphorylation-regulated kinase 1A (Homo sapiens, UniProt Q13627); test: Inhibition of recombinant DYRK1A after 1 hr by scintillation counter analysis in presence of gamma-[33P]ATP
[17] = target: MAP kinase-activated protein kinase 3 (Homo sapiens, UniProt Q16644); test: Inhibition of recombinant MK3 after 1 hr by scintillation counter analysis in presence of gamma-[33P]ATP
Sequence of MAP kinase-activated protein kinase 3 (Q16644 whole entry): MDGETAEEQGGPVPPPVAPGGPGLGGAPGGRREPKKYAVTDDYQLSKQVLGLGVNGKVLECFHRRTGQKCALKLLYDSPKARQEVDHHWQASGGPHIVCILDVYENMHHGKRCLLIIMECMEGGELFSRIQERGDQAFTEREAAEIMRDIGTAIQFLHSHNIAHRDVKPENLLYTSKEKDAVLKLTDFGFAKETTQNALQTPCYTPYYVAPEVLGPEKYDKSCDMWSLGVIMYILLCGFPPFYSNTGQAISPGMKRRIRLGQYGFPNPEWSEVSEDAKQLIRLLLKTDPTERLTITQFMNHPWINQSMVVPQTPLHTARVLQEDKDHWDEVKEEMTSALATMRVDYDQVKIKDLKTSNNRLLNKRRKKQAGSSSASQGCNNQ

[18] = target: Serine/threonine-protein kinase PLK2 (Homo sapiens, UniProt Q9NYY3); test: Inhibition of recombinant PLK2 after 1 hr by scintillation counter analysis in presence of gamma-[33P]ATP
Sequence of Serine/threonine-protein kinase PLK2 (Q9NYY3 whole entry): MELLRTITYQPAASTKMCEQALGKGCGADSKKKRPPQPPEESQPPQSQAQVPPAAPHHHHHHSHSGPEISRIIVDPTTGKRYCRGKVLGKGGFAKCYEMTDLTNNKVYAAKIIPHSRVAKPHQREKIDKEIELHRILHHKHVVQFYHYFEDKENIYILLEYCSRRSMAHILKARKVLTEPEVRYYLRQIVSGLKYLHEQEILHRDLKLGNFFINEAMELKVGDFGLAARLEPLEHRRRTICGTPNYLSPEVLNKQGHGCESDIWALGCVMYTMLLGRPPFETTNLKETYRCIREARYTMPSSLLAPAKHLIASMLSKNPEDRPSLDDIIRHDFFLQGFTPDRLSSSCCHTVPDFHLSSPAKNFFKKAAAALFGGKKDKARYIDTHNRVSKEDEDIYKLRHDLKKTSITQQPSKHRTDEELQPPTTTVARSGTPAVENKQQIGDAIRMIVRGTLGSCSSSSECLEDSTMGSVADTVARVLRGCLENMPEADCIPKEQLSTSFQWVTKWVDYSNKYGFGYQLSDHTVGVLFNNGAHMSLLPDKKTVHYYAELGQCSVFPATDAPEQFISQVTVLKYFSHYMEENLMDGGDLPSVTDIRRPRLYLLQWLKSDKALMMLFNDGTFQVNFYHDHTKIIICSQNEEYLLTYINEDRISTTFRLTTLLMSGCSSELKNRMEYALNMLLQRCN

[19] = target: Mitogen-activated protein kinase 1 (Homo sapiens, UniProt P28482); test: Inhibition of recombinant ERK2 after 1 hr by scintillation counter analysis in presence of gamma-[33P]ATP
[20] = Oral bioavailability in mouse; type: ADME, organism-based; settings: in vivo
[21] = target: Tyrosine-protein kinase Lyn (Homo sapiens, UniProt P07948); test: Inhibition of recombinant LYN after 1 hr by scintillation counter analysis in presence of gamma-[33P]ATP
[22] = target: Receptor tyrosine-protein kinase erbB-2 (Homo sapiens, UniProt P04626); test: Inhibition of recombinant ERBB2 after 1 hr by scintillation counter analysis in presence of gamma-[33P]ATP
Sequence of Receptor tyrosine-protein kinase erbB-2 (P04626 whole entry): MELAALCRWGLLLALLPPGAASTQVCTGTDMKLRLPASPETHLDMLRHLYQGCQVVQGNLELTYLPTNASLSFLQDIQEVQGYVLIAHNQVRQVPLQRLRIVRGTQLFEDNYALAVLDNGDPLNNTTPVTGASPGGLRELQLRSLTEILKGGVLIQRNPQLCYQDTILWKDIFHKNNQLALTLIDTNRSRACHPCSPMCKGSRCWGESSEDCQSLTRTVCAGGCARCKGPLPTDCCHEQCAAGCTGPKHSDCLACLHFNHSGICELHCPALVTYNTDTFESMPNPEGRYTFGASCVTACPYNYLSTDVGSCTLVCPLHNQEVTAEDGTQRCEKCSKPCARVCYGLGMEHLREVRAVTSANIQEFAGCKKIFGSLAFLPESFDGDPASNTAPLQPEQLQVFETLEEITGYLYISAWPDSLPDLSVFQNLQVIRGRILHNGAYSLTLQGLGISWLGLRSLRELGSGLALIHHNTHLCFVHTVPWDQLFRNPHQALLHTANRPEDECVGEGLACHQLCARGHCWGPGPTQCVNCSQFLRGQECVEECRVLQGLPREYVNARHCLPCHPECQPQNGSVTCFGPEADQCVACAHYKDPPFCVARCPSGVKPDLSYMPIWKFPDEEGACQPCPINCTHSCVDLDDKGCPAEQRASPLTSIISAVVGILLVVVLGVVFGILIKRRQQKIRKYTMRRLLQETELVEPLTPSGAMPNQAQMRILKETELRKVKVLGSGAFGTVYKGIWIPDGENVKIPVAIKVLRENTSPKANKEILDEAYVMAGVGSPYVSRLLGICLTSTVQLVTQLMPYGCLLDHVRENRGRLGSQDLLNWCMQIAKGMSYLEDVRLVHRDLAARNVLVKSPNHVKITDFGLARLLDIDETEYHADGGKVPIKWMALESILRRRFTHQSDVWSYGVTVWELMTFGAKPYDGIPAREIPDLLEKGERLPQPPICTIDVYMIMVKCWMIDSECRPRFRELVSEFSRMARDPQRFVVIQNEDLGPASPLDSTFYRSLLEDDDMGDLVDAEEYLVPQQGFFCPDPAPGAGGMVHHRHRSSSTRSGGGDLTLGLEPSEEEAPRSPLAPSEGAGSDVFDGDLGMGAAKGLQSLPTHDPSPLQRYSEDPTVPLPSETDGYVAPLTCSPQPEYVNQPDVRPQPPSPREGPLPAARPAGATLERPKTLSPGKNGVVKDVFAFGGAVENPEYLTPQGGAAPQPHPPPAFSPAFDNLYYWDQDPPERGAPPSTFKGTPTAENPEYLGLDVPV

[23] = target: RAC-beta serine/threonine-protein kinase (Homo sapiens, UniProt P31751); test: Inhibition of recombinant AKT2 after 1 hr by scintillation counter analysis in presence of gamma-[33P]ATP
[24] = tested on: Mus musculus; test: Toxicity in SCID mouse xenografted with human MIAPaCa2 cells assessed as body weight loss at 100 mg/kg/day, po measured on day 26 to day 44; type: organism-based, MIA PaCa-2; parameters: route oral; settings: in vivo
[25] = target: Serine/threonine-protein kinase D2 (Homo sapiens, UniProt Q9BZL6); test: Inhibition of recombinant PKD2 after 1 hr by scintillation counter analysis in presence of gamma-[33P]ATP
[26] = target: RAC-gamma serine/threonine-protein kinase (Homo sapiens, UniProt Q9Y243); test: Inhibition of recombinant AKT3 after 1 hr by scintillation counter analysis in presence of gamma-[33P]ATP
[27] = target: Serine/threonine-protein kinase pim-1 (Homo sapiens, UniProt P11309); test: Inhibition of recombinant PIM1 after 1 hr by scintillation counter analysis in presence of gamma-[33P]ATP
[28] = target: MAP/microtubule affinity-regulating kinase 3 (Homo sapiens, UniProt P27448); test: Inhibition of recombinant CTAK1 after 1 hr by scintillation counter analysis in presence of gamma-[33P]ATP
Sequence of MAP/microtubule affinity-regulating kinase 3 (P27448 whole entry): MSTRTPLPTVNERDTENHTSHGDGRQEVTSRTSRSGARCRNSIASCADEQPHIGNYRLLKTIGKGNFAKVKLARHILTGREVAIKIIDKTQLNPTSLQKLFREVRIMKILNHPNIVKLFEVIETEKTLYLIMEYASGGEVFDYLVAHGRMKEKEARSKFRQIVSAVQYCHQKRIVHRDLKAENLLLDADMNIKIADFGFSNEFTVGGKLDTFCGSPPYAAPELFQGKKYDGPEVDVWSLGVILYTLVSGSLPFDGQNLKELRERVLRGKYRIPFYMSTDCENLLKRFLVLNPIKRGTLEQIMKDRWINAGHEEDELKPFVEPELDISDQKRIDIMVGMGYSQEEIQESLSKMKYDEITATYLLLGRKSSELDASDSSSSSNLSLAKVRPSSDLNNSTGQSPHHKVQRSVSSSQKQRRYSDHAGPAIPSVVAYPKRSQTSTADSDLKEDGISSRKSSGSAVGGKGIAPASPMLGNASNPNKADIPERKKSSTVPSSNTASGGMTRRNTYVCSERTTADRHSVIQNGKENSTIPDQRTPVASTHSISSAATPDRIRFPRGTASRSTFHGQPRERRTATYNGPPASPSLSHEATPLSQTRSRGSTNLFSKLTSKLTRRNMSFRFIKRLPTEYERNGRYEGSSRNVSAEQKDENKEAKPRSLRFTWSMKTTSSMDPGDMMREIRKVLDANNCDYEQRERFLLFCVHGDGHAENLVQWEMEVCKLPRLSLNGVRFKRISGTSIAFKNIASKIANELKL

[29] = target: Serine/threonine-protein kinase PLK4 (Homo sapiens, UniProt O00444); test: Inhibition of recombinant PLK4 after 1 hr by scintillation counter analysis in presence of gamma-[33P]ATP
[30] = target: 5'-AMP-activated protein kinase subunit beta-1 (Homo sapiens, UniProt Q9Y478); test: Inhibition of recombinant AMPK after 1 hr by scintillation counter analysis in presence of gamma-[33P]ATP
[31] = target: Glycogen synthase kinase-3 alpha (Homo sapiens, UniProt P49840); test: Inhibition of recombinant GSK3A after 1 hr by scintillation counter analysis in presence of gamma-[33P]ATP
[32] = target: Serine/threonine-protein kinase PLK3 (Homo sapiens, UniProt Q9H4B4); test: Inhibition of recombinant PLK3 after 1 hr by scintillation counter analysis in presence of gamma-[33P]ATP
[33] = target: Protein kinase C delta type (Homo sapiens, UniProt Q05655); test: Inhibition of recombinant PKCdelta after 1 hr by scintillation counter analysis in presence of gamma-[33P]ATP
[34] = tested on: MIA PaCa-2; test: Antitumor activity against human MIAPaCa2 cells xenografted in SCID mouse assessed as tumor growth inhibition at 100 mg/kg/day, po measured on day 35 relative to vehicle-treated control; type: functional; settings: MIA PaCa-2, 840 h, read-out: TGI
[35] = target: Serine/threonine-protein kinase pim-2 (Homo sapiens, UniProt Q9P1W9); test: Inhibition of recombinant PIM2 after 1 hr by scintillation counter analysis in presence of gamma-[33P]ATP

Ki [1]: 262 nM | Ki [2]: > 1800 nM | Ki [3]: 220 nM | half-life [4]: 20.4 min | Cmax [5]: 5.4 µM | Ki [6]: 430 nM | Ki [7]: > 3000 nM | Ki [8]: > 7800 nM | Ki [9]: > 4500 nM | Ki [10]: 14 nM | Ki [11]: 2900 nM | Ki [12]: 102 nM | Ki [13]: > 1500 nM | Ki [14]: 98 nM | Ki [15]: > 2800 nM | Ki [16]: > 6800 nM | Ki [17]: > 9200 nM | Ki [18]: 2 nM | Ki [19]: 7200 nM | bioavailability [20]: 100% | Ki [21]: > 1600 nM | Ki [22]: > 1400 nM | Ki [23]: > 8000 nM | Ki [25]: 175 nM | Ki [26]: > 9000 nM | Ki [27]: 1600 nM | Ki [28]: 4830 nM | Ki [29]: 7 nM | Ki [30]: 333 nM | Ki [31]: 21 nM | Ki [32]: 2 nM | Ki [33]: 7.9 nM | Ki [35]: > 1400 nM
Compound: CC(C)(C)Nc1c(Nc2ccnc(Nc3ccc(-c4ccncc4)cc3)n2)c(=O)c1=O
Activity [24]: Non-toxic | inhibition in vivo at 100 mg/kg/day [34]: 38%
